From ChEMBL document CHEMBL1132133, “Synthesis and biological activity of a novel series of indole-derived PPARgamma agonists” (Bioorg Med Chem Lett, 1999)
The source made the active and inactive calls. No cut-off for these calls is given here.

How the values were obtained:
[1] = target: T1, Peroxisome proliferator-activated receptor gamma (Homo sapiens, UniProt P37231)
T1 sequence (P37231 whole entry): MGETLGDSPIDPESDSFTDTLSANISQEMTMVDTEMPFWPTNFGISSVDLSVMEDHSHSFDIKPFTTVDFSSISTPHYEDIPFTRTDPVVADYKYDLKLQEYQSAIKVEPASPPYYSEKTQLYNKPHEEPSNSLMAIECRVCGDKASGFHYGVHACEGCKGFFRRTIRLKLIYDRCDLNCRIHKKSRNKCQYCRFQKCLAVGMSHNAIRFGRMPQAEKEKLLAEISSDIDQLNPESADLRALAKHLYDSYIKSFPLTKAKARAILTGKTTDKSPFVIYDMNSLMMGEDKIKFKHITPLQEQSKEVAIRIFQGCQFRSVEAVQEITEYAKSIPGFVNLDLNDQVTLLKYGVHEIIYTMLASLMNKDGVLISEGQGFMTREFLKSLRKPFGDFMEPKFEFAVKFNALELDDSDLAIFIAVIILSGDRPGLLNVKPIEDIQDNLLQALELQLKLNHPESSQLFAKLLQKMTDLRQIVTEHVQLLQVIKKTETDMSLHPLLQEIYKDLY

[2] = target: T2, Peroxisome proliferator-activated receptor delta (Homo sapiens, UniProt Q03181)
T2 sequence (Q03181 whole entry): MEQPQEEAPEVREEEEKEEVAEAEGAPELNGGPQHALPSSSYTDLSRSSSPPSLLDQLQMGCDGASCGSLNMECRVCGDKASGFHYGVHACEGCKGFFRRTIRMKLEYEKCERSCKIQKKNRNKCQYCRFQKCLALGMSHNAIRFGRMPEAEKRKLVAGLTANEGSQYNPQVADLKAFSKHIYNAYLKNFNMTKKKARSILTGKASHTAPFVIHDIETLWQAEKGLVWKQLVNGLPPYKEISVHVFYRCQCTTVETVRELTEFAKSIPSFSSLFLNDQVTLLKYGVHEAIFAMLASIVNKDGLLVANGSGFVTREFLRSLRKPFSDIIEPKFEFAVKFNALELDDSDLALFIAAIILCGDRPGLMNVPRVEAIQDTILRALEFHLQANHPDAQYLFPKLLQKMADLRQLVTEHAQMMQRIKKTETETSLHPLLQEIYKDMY

[3] = target: T3, Peroxisome proliferator-activated receptor alpha (Homo sapiens, UniProt Q07869); assay: Binding affinity against Peroxisome Proliferator activated receptor alpha (PPAR alpha); Not active
T3 sequence (Q07869 whole entry): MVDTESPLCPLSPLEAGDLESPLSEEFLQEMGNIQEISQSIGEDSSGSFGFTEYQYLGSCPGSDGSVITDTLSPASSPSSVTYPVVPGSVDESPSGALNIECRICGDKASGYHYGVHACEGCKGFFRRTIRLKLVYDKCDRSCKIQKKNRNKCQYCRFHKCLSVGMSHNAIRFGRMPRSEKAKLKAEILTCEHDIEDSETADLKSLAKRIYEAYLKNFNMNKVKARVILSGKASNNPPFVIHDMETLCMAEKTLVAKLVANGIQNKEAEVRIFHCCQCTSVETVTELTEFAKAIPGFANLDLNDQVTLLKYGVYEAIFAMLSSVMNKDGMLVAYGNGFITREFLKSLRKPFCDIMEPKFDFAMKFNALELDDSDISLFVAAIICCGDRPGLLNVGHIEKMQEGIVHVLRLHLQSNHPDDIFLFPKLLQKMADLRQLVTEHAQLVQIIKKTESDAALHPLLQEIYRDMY

[4] = target: T4, Peroxisome proliferator-activated receptor gamma (Homo sapiens) (UniProt P37231); assay: Binding affinity against Peroxisome proliferator activated receptor gamma (PPAR gamma); Inactive at 10e-4 M
T4 sequence (whole entry): T1 sequence (P37231 whole entry)

[5] = target: T1, Peroxisome proliferator-activated receptor gamma; remark: listed apart in the source
[6] = target: T4, Peroxisome proliferator-activated receptor gamma (Homo sapiens); assay: Transcriptional activation of peroxisome proliferator activated receptor gamma activity; Inactive at 10e-4 M; type: functional
[7] = Pharmacokinetic property (total body clearance) in rat; type: ADME, organism-based; details: in vivo, read-out: CLtotal
[8] = Pharmacokinetic property (oral bioavailability) in rat (dose given as a suspension); type: ADME, organism-based; details: in vivo
[9] = target: T1, Peroxisome proliferator-activated receptor gamma; assay: Inhibitory concentration of the PPAR gamma)
[10] = Pharmacokinetic property (oral bioavailability) in rat (dose given as a solution); type: ADME, organism-based; details: in vivo
[11] = target: T1, Peroxisome proliferator-activated receptor gamma; assay: Binding affinity against human Peroxisome proliferator activated receptor gamma (PPAR gamma)
[12] = Pharmacokinetic property (half life) in rat; type: ADME, organism-based; details: in vivo

Row | EC50 [1] [µM] | Ki [2] | Ki [3] | Ki [5] [nM] | SMILES | also measured
1 | > 10 | Not Active | Not Active | – | O=C(O)Cc1ccc2[nH]c(-c3ccccc3)c(Cc3ccccc3)c2c1 | Log Ki [4]: inactive
2 | 3.02 | Not Active | Not Active | – | O=C(O)CCc1ccc2[nH]c(-c3ccccc3)c(CCc3ccccc3)c2c1 | –
3 | > 10 | Not Active | Not Active | > 10000 | O=C(O)Cc1ccc2[nH]c(-c3ccccc3)c(-c3ccccc3)c2c1 | –
4 | 0.0437 | Not Active | Not Active | 47.9 | COc1ccc(CCc2c(-c3ccccc3)[nH]c3ccc(CC(=O)O)cc23)cc1 | clearance [7]: 3 mL/min/kg; bioavailability [8]: 73%; IC50 [9]: 50 nM; bioavailability [10]: 78%; Ki [11]: 50 nM; half-life [12]: 228 min
5 | 0.309 | Not Active | Not Active | – | O=C(O)Cc1ccc2[nH]c(-c3ccccc3)c(CCc3ccccc3)c2c1 | –

The remaining lines, values behind:

Row | SMILES | EC50 [1] [µM] | Ki [2] | Ki [3] | Ki [5] [nM] | also measured
6 | CCCc1c(-c2ccccc2)[nH]c2ccc(C(=O)O)cc12 | > 10 | Not Active | Not Active | – | –
7 | Cn1c(-c2ccccc2)c(CCc2ccccc2)c2cc(OCC(=O)O)ccc21 | > 10 | Not Active | Not Active | – | –
8 | O=C(O)Cc1ccc2[nH]cc(CCc3ccccc3)c2c1 | > 10 | Not Active | Not Active | > 10000 | –
9 | Cc1c(C)c2c(c(C)c1O)CCC(C)(COc1ccc(CC3SC(=O)NC3=O)cc1)O2 (stereo unspecified) [TROGLITAZONE] | – | Not Active | Not Active | – | –
10 | O=C(O)Cc1ccc2[nH]c(-c3ccccc3)cc2c1 | – | Not Active | Not Active | – | Log EC50 [6]: inactive
11 | CN(CCOc1ccc(CC2SC(=O)NC2=O)cc1)c1ccccn1 (stereo unspecified) [ROSIGLITAZONE] | – | – | Not Active | – | –
12 | O=C1CSC(=O)N1Cc1ccc2[nH]c(-c3ccccc3)c(CCc3ccccc3)c2c1 | > 10 | Not Active | Not Active | – | –
13 | Cn1c(-c2ccccc2)c(CCc2ccccc2)c2cc(CC(=O)O)ccc21 | 5.62 | Not Active | Not Active | 550 | –
14 | CCCc1c(-c2ccccc2)[nH]c2ccc(CC(=O)O)cc12 | 7.08 | Not Active | Not Active | – | –
15 | O=C(O)Cc1ccc2[nH]c(-c3ccc(F)cc3)c(CCc3ccc(F)cc3)c2c1 | 0.339 | Not Active | Not Active | 490 | –
16 | CCc1ccc(CCOc2ccc(CC3SC(=O)NC3=O)cc2)nc1 (stereo unspecified) [PIOGLITAZONE] | – | Not Active | Not Active | – | –
